Assay results taken from patent publication US12600926B2, “Treatment compositions with modified amino acid dimers for delivering a benefit agent” (The Procter & Gamble Company, priority 2022, dated 2026).

Assay: Stability of the independent neat fluid by 1H NMR
Format: physicochemical
Settings: neat premix fluid, storage
Procedure: (§1) Synthetic Example 1′ was prepared as described in General Method A, but using 10 g of L-Cystine, 17.0 g of dodecanol, and 17.4 g PTSA·H2O. The isolated fluid of Synthetic Example 1′ was then mixed with cyclamen aldehyde as described in General Method B yielding Synthetic Example 1.
as §1, with “2′” for “1′”, “5.0” for “10”, “2,6-Diaminoheptanedioic acid, 10.5” for “L-Cystine, 17.0”, “11” for “17.4”, “with 15 wt % ethanol, and” for “with”, “2A.” for “1.”
Synthetic Example 2′ was prepared as described in General Method A, but using 5.0 g of 2,6-Diaminoheptanedioic acid, 10.8 g of dodecanol, and 11.1 g PTSA H2O. The isolated fluid of Synthetic Example 2′ was then mixed with 15 wt % ethanol, and δ-Damascone, as described in General Method B yielding Synthetic Example 2B.

Stability of the independent fluid by 1H NMR | Compound
stable for several months | CCCCCCCCCCCCOC(=O)C(CCCC(N=CC(C)Cc1ccc(C(C)C)cc1)C(=O)OCCCCCCCCCCCC)N=CC(C)Cc1ccc(C(C)C)cc1 (centres unmarked) [Synthetic Example 2A]
stable for several months | CCCCCCCCCCCCOC(=O)C(CCCC(NC(C)CC(=O)C1C(C)C=CCC1(C)C)C(=O)OCCCCCCCCCCCC)NC(C)CC(=O)C1C(C)C=CCC1(C)C (centres unmarked) [Synthetic Example 2B]
